PMC11876601 (Molecular Systems Biology, 2025)
Read-outs that look alike come from different tables or passages of the source.

Assays:
Test in all cases: cells
[1] = system: AsPC-1; parameters: Viability of PDAC cell lines, ATPlite luminescence, 11-dose single-agent curve fit; details: Homo sapiens, ASPC1, 72 h, read-out: EC50 [nM]
Description: (§1) Afterward, small amounts were transferred to 384-well intermediate plates (Greiner Bio-One GmbH, Germany). […] For drug combination screening, 1000 to 5000 cells were seeded into 384-well plates (CulturPlate™, Perkin Elmer, MA, USA) using a Multidrop™ Combi Reagent Dispenser (Thermo Scientific, MA, USA) in 50 µl medium per well 24 h prior to drug treatment (seeding densities see Appendix Table S1). […] The final DMSO concentration in each well was 0.2%. […] Eight wells per plate without library drug served as negative controls, and sixteen wells per plate containing 5 µM Staurosporine served as positive controls. […] Next, we analyzed the drug sensitivity of immortalized duct cell line HPDE to detect effects unrelated to pancreatic cancer.

[2] = system: BxPC-3; parameters: Viability of PDAC cell lines, ATPlite luminescence, 11-dose single-agent curve fit; details: Homo sapiens, BXPC-3, 72 h, read-out: EC50 [nM]
Description: as §1

[3] = system: Capan-1; parameters: Viability of PDAC cell lines, ATPlite luminescence, 11-dose single-agent curve fit; details: Homo sapiens, CAPAN-1, 72 h, read-out: EC50 [nM]
Description: as §1

[4] = system: Colo-357; parameters: Viability of PDAC cell lines, ATPlite luminescence, 11-dose single-agent curve fit; details: Homo sapiens, COLO357, 72 h, read-out: EC50 [nM]
Description: as §1

[5] = system: Dan-G; parameters: Viability of PDAC cell lines, ATPlite luminescence, 11-dose single-agent curve fit; details: 72 h, read-out: EC50 [nM]
Description: as §1

[6] = system: FAMPAC; parameters: Viability of PDAC cell lines, ATPlite luminescence, 11-dose single-agent curve fit; details: 72 h, read-out: EC50 [nM]
Description: as §1

[7] = system: HPDE; parameters: Viability of PDAC cell lines, ATPlite luminescence, 11-dose single-agent curve fit; details: HPDE, 72 h, read-out: EC50 [nM]
Description: as §1

[8] = system: HuP-T4; parameters: Viability of PDAC cell lines, ATPlite luminescence, 11-dose single-agent curve fit; details: Homo sapiens, HuP-T4, 72 h, read-out: EC50 [nM]
Description: as §1

[9] = system: MiaPaCa-2; parameters: Viability of PDAC cell lines, ATPlite luminescence, 11-dose single-agent curve fit; details: Homo sapiens, MIA PaCa-2, 72 h, read-out: EC50 [nM]
Description: as §1

[10] = system: PANC-1; parameters: Viability of PDAC cell lines, ATPlite luminescence, 11-dose single-agent curve fit; details: Homo sapiens, PANC-1, 72 h, read-out: EC50 [nM]
Description: as §1

[11] = system: PSN-1; parameters: Viability of PDAC cell lines, ATPlite luminescence, 11-dose single-agent curve fit; details: Homo sapiens, PSN1, 72 h, read-out: EC50 [nM]
Description: as §1

[12] = system: PaTu-8988-T; parameters: Viability of PDAC cell lines, ATPlite luminescence, 11-dose single-agent curve fit; details: Homo sapiens, PaTu 8988t, 72 h, read-out: EC50 [nM]
Description: as §1

[13] = system: Suit2-07; parameters: Viability of PDAC cell lines, ATPlite luminescence, 11-dose single-agent curve fit; details: 72 h, read-out: EC50 [nM]
Description: as §1

[14] = system: BxPC-3; parameters: ATPlite luminescence viability of PDAC cell lines, 11-dose single-agent curves, 4-parameter fit; details: Homo sapiens, BXPC-3, 72 h, read-out: EC50 [nM]
Description: as §1

[15] = system: FAMPAC; parameters: ATPlite luminescence viability of PDAC cell lines, 11-dose single-agent curves, 4-parameter fit; details: 72 h, read-out: EC50 [nM]
Description: as §1

[16] = system: MiaPaCa-2; parameters: ATPlite luminescence viability of PDAC cell lines, 11-dose single-agent curves, 4-parameter fit; details: Homo sapiens, MIA PaCa-2, 72 h, read-out: EC50 [nM]
Description: as §1

[17] = system: PSN-1; parameters: ATPlite luminescence viability of PDAC cell lines, 11-dose single-agent curves, 4-parameter fit; details: Homo sapiens, PSN1, 72 h, read-out: EC50 [nM]
Description: as §1

[18] = system: Dan-G; parameters: ATPlite luminescence viability of PDAC cell lines, 11-dose single-agent curves, 4-parameter fit; details: 72 h, read-out: EC50 [nM]
Description: as §1

[19] = system: Suit2-07; parameters: ATPlite luminescence viability of PDAC cell lines, 11-dose single-agent curves, 4-parameter fit; details: 72 h, read-out: EC50 [nM]
Description: as §1

Row | SMILES | EC50 [1] [nM] | EC50 [2] [nM] | EC50 [4] [nM] | EC50 [9] [nM] | EC50 [10] [nM] | EC50 [14] [nM] | EC50 [16] [nM] | EC50 [3] [nM] | EC50 [5] [nM] | EC50 [6] [nM] | EC50 [7] [nM] | EC50 [8] [nM] | EC50 [11] [nM] | EC50 [12] [nM] | EC50 [13] [nM] | EC50 [15] [nM] | EC50 [17] [nM] | EC50 [18] [nM] | EC50 [19] [nM]
1 | CC#CC(=O)N1CCC[C@H]1c1nc(-c2ccc(C(=O)Nc3ccccn3)cc2)c2c(N)nccn12 [Acalabrutinib] | 1.48 | 756 | 2640 | 718 | 365 | – | – | 3020 | 553 | > 10000 | 703 | 632 | 4470 | 1590 | 13.1 | – | – | – | –
2 | N#CC1(c2ccc(NC(=O)c3cccnc3NCc3ccncc3)cc2)CCCC1 [Apatinib] | 452 | 5230 | 4280 | > 10000 | 2350 | – | – | > 10000 | 5380 | > 10000 | 7430 | 283 | > 10000 | > 10000 | 1420 | – | – | – | –
3 | [2H]C([2H])([2H])NC(=O)c1nnc(NC(=O)C2CC2)cc1Nc1cccc(-c2ncn(C)n2)c1OC [BMS986165] | 4870 | > 10000 | 9560 | 7220 | 2070 | – | – | – | 3350 | > 10000 | 2330 | 4610 | 7570 | > 10000 | > 10000 | – | – | – | –
4 | Cc1cc2c(F)c(Oc3ncnn4cc(OC[C@@H](C)O)c(C)c34)ccc2[nH]1 [Brivanib] | 156 | 3.14 | 8830 | 7100 | > 10000 | – | – | > 10000 | > 10000 | – | > 10000 | 5470 | > 10000 | 9580 | > 10000 | – | – | – | –
5 | CO[C@H]1C[C@@H]2CC[C@@H](C)[C@@](O)(O2)C(=O)C(=O)N2CCCC[C@H]2C(=O)O[C@H]([C@H](C)C[C@@H]2CC[C@@H](OCCO)[C@H](OC)C2)CC(=O)[C@H](C)/C=C(\C)[C@@H](O)[C@@H](OC)C(=O)[C@H](C)C[C@H](C)/C=C/C=C/C=C/1C [Certican] | 0.14 | 0.09 | 238 | 1.84 | 171 | – | – | 3520 | 0.21 | 5.43 | 0.16 | 2.46 | 0.05 | 0.1 | 2610 | – | – | – | –
6 | CNC(=O)c1ccc(Nc2ncc(C(F)(F)F)c(NCc3nccnc3N(C)S(C)(=O)=O)n2)cc1 [Defactinib] | 3350 | – | 3820 | – | 142 | > 10000 | 4660 | 3400 | 7590 | – | 3690 | 441 | – | 9750 | > 10000 | > 10000 | 4590 | – | –
7 | C=CC(=O)N1CCC(CNc2ncnc(N)c2-c2ccc(Oc3ccccc3)cc2)CC1 [Evobrutinib] | 1070 | 2910 | 31.5 | 4490 | > 10000 | – | – | > 10000 | 493 | – | 2.61 | – | 571 | 213 | 1.96 | – | – | – | –

The remaining molecules from weak to strong by EC50 [4], led by results:

Row | EC50 [1] [nM] | EC50 [2] [nM] | EC50 [4] [nM] | EC50 [9] [nM] | EC50 [10] [nM] | EC50 [14] [nM] | EC50 [16] [nM] | SMILES | EC50 [3] [nM] | EC50 [5] [nM] | EC50 [6] [nM] | EC50 [7] [nM] | EC50 [8] [nM] | EC50 [11] [nM] | EC50 [12] [nM] | EC50 [13] [nM] | EC50 [15] [nM] | EC50 [17] [nM] | EC50 [18] [nM] | EC50 [19] [nM]
8 | 3850 | 275 | 9870 | 2760 | 140 | – | – | CCCS(=O)(=O)N[C@H]1C[C@@H](N(C)c2ncnc3[nH]ccc23)C1 [Abrocitinib] | 37.4 | > 10000 | 2.68 | 5620 | 643 | > 10000 | 3800 | 901 | – | – | – | –
9 | 305 | 9420 | 3490 | – | 43.9 | – | > 10000 | O=C(Nc1nc2cccc(-c3ccc(CN4CCS(=O)(=O)CC4)cc3)n2n1)C1CC1 [Filgotinib] | 5940 | 6150 | – | 1990 | 172 | – | > 10000 | 2150 | 8160 | 7590 | – | –
10 | > 10000 | 2870 | 3070 | 2130 | 1590 | – | – | C[C@H](Nc1ncnc2nc[nH]c12)c1cc2cccc(Cl)c2c(=O)n1-c1ccccc1 [Duvelisib] | 4650 | – | 4250 | 6900 | 109 | 883 | > 10000 | > 10000 | – | – | 5640 | –
11 | 3480 | – | 2990 | – | 442 | 1370 | > 10000 | CCN1C(=O)N(c2c(F)c(OC)cc(OC)c2F)Cc2cnc3[nH]c(CN4CCOCC4)cc3c21 [Pemigatinib] | 2030 | 2970 | – | 3380 | 3.44 | 2710 | 3280 | – | 3320 | – | – | 3040
12 | 56.3 | 53.6 | 852 | 4.24 | 74 | – | – | CCN(CCCOc1ccc2c(Nc3cc(CC(=O)Nc4cccc(F)c4)[nH]n3)ncnc2c1)CCOP(=O)(O)O [Barasertib] | 42 | 296 | 40.1 | 74.6 | 56.8 | 32.6 | 10300 | 3290 | – | – | – | –
13 | 1990 | 3240 | 420 | 1710 | 2600 | – | – | Cn1cc(-c2cc3c(N4CCN(c5ncc([C@@](C)(N)c6ccc(F)cc6)cn5)CC4)ncnn3c2)cn1 [Avapritinib] | 3830 | 3820 | 2070 | 976 | 701 | 1010 | 1570 | 3550 | – | – | – | –
14 | 28.4 | 164 | 352 | > 10000 | 2580 | – | – | CN1CC[C@@H](NC(=O)Nc2ccc(C#N)cc2)C[C@@H]1c1nc2ccccc2[nH]1 [Glasdegib] | – | 176 | 1230 | 110 | 208 | 846 | 0.5 | 523 | – | – | – | –
15 | – | 99.3 | 220 | 71.8 | 80.3 | – | – | CCc1cc2c(cc1N1CCC(N3CCOCC3)CC1)C(C)(C)c1[nH]c3cc(C#N)ccc3c1C2=O [Alectinib] | – | > 10000 | 9090 | 2130 | 680 | 0.05 | 28 | 2390 | – | – | – | –
16 | 32.7 | 792 | 131 | 1830 | 1420 | – | – | Cc1ccc(F)c(NC(=O)Nc2ccc(-c3cccc4[nH]nc(N)c34)cc2)c1 [Linifanib] | 47 | 27.9 | 3290 | 311 | 1100 | > 10000 | – | 864 | – | – | – | –
